Experimental data from ChEMBL document CHEMBL5653631, “A Potent and Selective ULK1 Inhibitor Suppresses Autophagy and Sensitizes Cancer Cells to Nutrient Stress” (iScience, 2018).
One block for each compound: values may come before it.

Key:
[1] = molecular target: T1, Ephrin type-A receptor 8 (Homo sapiens) (UniProt P29322); assay: Inhibition of human recombinant EphA8 at 500 nM in presence of ATP by radiometric assay relative to control
T1 sequence (whole entry): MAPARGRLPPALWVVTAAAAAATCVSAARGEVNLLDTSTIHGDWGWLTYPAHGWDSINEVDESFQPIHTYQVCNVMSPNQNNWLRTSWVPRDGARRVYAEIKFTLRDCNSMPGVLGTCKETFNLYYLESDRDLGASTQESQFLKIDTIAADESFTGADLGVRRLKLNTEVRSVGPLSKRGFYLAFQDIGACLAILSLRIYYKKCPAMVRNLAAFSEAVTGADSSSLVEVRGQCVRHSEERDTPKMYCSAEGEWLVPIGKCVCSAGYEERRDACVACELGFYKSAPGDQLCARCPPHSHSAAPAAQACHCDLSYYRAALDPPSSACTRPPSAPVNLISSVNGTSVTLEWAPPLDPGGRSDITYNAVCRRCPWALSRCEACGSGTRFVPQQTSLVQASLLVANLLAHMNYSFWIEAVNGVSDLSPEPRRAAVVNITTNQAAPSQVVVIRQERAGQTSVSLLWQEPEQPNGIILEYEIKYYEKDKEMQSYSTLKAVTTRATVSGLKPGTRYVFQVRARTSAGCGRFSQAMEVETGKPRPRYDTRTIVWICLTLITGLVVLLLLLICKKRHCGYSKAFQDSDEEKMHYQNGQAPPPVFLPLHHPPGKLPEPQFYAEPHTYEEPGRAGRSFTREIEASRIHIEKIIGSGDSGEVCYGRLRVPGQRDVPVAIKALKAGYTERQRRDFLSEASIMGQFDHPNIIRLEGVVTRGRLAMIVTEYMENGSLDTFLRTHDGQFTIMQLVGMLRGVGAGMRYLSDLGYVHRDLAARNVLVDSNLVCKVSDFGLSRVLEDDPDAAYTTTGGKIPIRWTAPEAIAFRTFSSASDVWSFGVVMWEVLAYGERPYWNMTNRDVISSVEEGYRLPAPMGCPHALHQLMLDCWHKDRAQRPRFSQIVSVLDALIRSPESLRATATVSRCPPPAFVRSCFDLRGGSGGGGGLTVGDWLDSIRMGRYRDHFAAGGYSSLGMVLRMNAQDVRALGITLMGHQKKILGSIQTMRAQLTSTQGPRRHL

[2] = molecular target: LIM domain kinase 1 (Homo sapiens) (UniProt P53667); assay: Inhibition of human recombinant LIMK1 at 500 nM in presence of ATP by radiometric assay relative to control
[3] = molecular target: PAS domain-containing serine/threonine-protein kinase (Homo sapiens) (UniProt Q96RG2); assay: Inhibition of human recombinant PASK at 500 nM related to control ULK1
[4] = molecular target: Hepatocyte growth factor receptor (Homo sapiens) (UniProt P08581); assay: Inhibition of human recombinant MET at 500 nM related to control ULK1
[5] = molecular target: Serine/threonine-protein kinase 4 (Homo sapiens) (UniProt Q13043); assay: Inhibition of human recombinant MST1 at 500 nM related to control ULK1
[6] = molecular target: Protein kinase C gamma type (Homo sapiens) (UniProt P05129); assay: Inhibition of human recombinant PKCg at 15 nM in presence of ATP by radiometric assay relative to control
[7] = molecular target: Tyrosine-protein kinase FRK (Homo sapiens) (UniProt P42685); assay: Inhibition of human recombinant FRK at 15 nM related to control ULK1
[8] = molecular target: Tyrosine-protein kinase JAK2 (Homo sapiens) (UniProt O60674); assay: Inhibition of human recombinant JAK2 at 15 nM related to control ULK1
[9] = molecular target: Ribosomal protein S6 kinase alpha-1 (Homo sapiens) (UniProt Q15418); assay: Inhibition of human recombinant RSK1 at 40 nM in presence of ATP by radiometric assay relative to control
[10] = molecular target: T2, Testis-specific serine/threonine-protein kinase 3 (Homo sapiens) (UniProt Q96PN8); assay: Inhibition of human recombinant TSSK3 at 40 nM in presence of ATP by radiometric assay relative to control
T2 sequence (whole entry): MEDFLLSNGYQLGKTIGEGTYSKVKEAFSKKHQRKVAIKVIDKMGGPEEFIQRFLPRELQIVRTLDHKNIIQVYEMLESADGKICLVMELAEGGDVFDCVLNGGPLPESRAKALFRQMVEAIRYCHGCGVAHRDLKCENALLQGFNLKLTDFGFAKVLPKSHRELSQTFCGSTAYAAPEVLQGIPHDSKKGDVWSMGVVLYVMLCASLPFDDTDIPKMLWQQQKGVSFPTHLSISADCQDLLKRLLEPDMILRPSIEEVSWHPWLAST

[11] = molecular target: Calcium/calmodulin-dependent protein kinase kinase 2 (Homo sapiens) (UniProt Q96RR4); assay: Inhibition of human recombinant CaMKK2 at 40 nM related to control ULK1
[12] = molecular target: Cyclin-dependent kinase 13 (Homo sapiens) (UniProt Q14004); assay: Inhibition of human recombinant CHED at 40 nM related to control ULK1
Homo sapiens = species: Homo sapiens; assay: Inhibition of human recombinant CK1d at 40 nM related to control ULK1
[13] = molecular target: Serine/threonine-protein kinase PAK 1 (Homo sapiens) (UniProt Q13153); assay: Inhibition of human recombinant PAK1 at 40 nM related to control ULK1
Serine/threonine-protein kinase PAK 1 (Homo sapiens), sequence (Q13153 whole entry, looked up): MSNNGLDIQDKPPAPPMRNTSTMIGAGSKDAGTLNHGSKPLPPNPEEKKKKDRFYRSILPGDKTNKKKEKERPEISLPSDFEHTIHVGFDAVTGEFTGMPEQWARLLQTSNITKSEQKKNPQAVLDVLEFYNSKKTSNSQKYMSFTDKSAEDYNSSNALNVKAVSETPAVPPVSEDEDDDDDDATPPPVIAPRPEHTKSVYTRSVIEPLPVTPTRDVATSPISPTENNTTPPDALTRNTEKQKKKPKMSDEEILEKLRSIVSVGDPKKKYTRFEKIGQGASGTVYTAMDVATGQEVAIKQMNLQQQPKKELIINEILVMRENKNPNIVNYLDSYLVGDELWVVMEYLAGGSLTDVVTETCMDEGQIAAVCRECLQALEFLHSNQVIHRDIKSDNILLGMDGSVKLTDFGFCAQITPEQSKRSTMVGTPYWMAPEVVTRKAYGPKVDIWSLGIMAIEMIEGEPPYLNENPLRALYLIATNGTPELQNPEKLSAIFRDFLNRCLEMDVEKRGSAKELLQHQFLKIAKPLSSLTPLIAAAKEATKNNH

Ribosomal protein S6 kinase alpha-1 (Homo sapiens), sequence (Q15418 whole entry): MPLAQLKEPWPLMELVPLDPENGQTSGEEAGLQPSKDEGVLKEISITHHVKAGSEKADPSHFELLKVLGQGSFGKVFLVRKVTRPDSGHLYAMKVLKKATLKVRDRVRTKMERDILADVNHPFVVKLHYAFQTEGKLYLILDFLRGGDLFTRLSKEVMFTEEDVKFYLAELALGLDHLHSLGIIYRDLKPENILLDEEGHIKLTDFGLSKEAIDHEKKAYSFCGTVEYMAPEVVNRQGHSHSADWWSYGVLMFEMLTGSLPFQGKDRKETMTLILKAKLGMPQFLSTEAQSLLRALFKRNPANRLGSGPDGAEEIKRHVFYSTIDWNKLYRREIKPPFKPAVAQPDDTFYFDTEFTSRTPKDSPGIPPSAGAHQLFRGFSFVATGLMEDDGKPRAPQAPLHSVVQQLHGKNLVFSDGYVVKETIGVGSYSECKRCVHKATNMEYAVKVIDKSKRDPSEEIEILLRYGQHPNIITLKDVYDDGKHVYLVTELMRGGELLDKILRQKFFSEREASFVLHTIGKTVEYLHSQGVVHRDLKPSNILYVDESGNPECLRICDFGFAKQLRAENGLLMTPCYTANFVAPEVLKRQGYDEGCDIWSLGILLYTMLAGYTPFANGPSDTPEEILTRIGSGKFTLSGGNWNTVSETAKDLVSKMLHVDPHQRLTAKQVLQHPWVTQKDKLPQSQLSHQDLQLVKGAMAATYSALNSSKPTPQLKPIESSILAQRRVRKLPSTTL
Tyrosine-protein kinase JAK2 (Homo sapiens), sequence (O60674 whole entry): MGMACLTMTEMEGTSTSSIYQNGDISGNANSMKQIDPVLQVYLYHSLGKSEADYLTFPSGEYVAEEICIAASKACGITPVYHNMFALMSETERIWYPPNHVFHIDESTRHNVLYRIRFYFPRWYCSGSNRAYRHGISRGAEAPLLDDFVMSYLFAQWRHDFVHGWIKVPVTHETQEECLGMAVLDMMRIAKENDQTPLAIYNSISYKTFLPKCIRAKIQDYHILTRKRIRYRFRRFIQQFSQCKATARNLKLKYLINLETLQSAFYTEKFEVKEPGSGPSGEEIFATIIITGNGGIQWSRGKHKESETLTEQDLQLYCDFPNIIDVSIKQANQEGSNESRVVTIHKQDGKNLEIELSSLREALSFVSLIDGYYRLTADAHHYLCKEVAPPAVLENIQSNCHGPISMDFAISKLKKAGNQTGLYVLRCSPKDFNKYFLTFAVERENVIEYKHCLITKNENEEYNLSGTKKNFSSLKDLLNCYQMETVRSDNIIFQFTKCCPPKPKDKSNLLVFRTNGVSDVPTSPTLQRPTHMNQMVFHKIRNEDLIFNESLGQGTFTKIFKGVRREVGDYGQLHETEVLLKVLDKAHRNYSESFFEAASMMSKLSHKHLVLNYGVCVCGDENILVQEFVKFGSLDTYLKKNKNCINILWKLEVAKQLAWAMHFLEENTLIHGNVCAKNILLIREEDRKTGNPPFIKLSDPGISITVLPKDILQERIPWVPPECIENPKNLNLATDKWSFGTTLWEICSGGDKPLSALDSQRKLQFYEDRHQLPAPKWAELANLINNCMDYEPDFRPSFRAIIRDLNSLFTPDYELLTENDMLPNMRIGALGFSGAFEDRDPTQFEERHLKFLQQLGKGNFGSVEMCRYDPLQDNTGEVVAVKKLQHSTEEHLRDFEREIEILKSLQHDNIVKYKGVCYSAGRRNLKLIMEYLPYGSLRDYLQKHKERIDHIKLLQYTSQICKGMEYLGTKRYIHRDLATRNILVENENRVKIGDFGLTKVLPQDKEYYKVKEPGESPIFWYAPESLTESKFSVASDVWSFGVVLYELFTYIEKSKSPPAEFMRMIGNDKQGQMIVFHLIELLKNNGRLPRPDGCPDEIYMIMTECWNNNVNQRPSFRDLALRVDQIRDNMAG
Calcium/calmodulin-dependent protein kinase kinase 2 (Homo sapiens), sequence (Q96RR4 2-588 limits assumed): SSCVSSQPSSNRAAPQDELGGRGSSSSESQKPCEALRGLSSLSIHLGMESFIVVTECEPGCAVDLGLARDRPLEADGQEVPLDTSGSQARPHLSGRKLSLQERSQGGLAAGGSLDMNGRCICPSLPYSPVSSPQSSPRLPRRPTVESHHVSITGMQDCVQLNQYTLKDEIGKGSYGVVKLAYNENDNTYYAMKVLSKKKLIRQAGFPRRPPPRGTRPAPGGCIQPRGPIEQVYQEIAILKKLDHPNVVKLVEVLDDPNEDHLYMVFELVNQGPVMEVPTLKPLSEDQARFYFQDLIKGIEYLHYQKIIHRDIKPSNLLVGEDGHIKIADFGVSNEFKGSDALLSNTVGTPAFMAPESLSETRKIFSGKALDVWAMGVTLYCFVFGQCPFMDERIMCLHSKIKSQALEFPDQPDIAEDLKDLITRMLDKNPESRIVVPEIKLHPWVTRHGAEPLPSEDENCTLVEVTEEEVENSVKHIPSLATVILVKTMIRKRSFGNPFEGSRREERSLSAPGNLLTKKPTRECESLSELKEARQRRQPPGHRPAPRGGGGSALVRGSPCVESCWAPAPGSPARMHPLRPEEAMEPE
Hepatocyte growth factor receptor (Homo sapiens), sequence (P08581 whole entry, looked up): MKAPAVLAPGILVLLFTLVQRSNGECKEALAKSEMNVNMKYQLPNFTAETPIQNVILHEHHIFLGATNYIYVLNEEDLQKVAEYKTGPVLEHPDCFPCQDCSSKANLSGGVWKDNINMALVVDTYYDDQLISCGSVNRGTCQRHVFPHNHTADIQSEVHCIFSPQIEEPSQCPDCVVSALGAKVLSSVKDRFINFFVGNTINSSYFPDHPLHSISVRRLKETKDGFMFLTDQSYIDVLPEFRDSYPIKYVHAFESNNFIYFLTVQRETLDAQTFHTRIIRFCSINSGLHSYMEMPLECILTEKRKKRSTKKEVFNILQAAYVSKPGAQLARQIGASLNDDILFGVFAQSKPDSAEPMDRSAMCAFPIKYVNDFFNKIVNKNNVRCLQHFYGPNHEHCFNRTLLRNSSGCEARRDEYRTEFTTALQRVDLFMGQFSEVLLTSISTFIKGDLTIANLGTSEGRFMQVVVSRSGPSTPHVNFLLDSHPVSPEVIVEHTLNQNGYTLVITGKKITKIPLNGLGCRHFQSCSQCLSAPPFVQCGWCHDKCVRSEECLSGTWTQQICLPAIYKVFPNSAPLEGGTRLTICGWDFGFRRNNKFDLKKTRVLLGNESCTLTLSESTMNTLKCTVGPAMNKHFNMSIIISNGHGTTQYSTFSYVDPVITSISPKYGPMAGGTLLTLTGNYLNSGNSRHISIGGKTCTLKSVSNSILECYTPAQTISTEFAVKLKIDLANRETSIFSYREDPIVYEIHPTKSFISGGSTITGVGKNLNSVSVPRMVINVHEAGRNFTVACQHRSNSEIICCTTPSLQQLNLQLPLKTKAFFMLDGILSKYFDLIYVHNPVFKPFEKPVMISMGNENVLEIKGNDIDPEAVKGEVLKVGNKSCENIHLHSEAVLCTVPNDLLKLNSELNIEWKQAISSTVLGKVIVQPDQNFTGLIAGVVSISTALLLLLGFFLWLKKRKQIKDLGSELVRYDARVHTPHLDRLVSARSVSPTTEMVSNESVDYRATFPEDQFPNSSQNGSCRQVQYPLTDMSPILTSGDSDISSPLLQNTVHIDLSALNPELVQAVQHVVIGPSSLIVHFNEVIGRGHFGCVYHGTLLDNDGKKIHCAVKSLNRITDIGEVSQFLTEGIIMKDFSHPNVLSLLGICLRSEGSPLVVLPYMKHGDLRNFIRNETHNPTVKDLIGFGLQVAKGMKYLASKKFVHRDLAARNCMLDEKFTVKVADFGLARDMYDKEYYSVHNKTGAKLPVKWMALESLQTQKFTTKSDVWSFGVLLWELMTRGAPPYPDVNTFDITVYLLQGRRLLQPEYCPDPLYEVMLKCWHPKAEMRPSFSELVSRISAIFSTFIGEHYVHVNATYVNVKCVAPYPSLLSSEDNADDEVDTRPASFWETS

inhibition [1]: 2%
inhibition [2]: 2%
fold change (FC) [3]: 0.14
fold change (FC) [4]: 0.43
fold change (FC) [5]: 0
SMILES: CNC(=O)c1ccccc1Oc1nc(Nc2cc(OC)c(OC)c(OC)c2)ncc1Br

inhibition [6]: 0%
fold change (FC) [7]: 0.15
fold change (FC) [8]: 0.07
SMILES: CC(C)[C@H](NC(=O)c1cc(-c2cnn3cc(-c4ccc(OCCN5CCCCC5)cc4)cnc23)cs1)C(F)(F)F

inhibition [9]: 8%
inhibition [10]: 0%
fold change (FC) [11]: 0
fold change (FC) [12]: 0.05
fold change (FC) (Homo sapiens): 0.04
fold change (FC) [13]: 0
SMILES: O=C(N[C@@H](C1CC1)C(F)(F)F)c1cc(-c2cnn3cc(-c4ccc(F)cc4)cnc23)cs1
